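Growth conditions: 96-well plates. Treatment: test compound, 48 hours, 5 concentrations. Analysis: linear interpolation between bracketing concentrations; unreached endpoints set to highest concentration. TGI is the concentration that stops growth completely.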
system: SK-MEL-2 melanoma; assay: inhibition of tumour cell growth, NCI panel, 48 h

SMILES | TGI [µM]
CC(=O)c1csc2c1C(=O)c1scc(C(C)=O)c1C2=O | 3.73
COc1cccc(CCn2c(N)c(-c3ccccc3)c3ccc([N+](=O)[O-])cc3c2=O)c1 | 48.4
CC1(C)c2ccccc2C(=O)C12CCC(=O)CC2 | > 100

system: SK-MEL-28 melanoma; assay: inhibition of tumour cell growth, NCI panel, 48 h

SMILES | TGI [µM]
COc1ccc2c(c1)CCc1c-2[nH]c2ccc(OC)cc12 | > 100
C/C(=N\Nc1cc(CN2CCCC2)c(-c2ccc(Cl)cc2)nn1)C(=O)O | > 100
O=C(O)c1ccc(NNc2cc(=O)[nH]c(=O)[nH]2)cc1 | > 100
Cc1cccc(/C=N/NC(=S)NCCc2ccccn2)n1 | > 100
CC(=O)c1csc2c1C(=O)c1scc(C(C)=O)c1C2=O | 3.64
COc1cccc(CCn2c(N)c(-c3ccccc3)c3ccc([N+](=O)[O-])cc3c2=O)c1 | 50
CC1(C)c2ccccc2C(=O)C12CCC(=O)CC2 | > 100

system: SK-MEL-5 melanoma; assay: inhibition of tumour cell growth, NCI panel, 48 h

SMILES | TGI [µM]
COc1ccc2c(c1)CCc1c-2[nH]c2ccc(OC)cc12 | > 100
C/C(=N\Nc1cc(CN2CCCC2)c(-c2ccc(Cl)cc2)nn1)C(=O)O | > 100
O=C(O)c1ccc(NNc2cc(=O)[nH]c(=O)[nH]2)cc1 | > 100
Cc1cccc(/C=N/NC(=S)NCCc2ccccn2)n1 | > 100
CC(=O)c1csc2c1C(=O)c1scc(C(C)=O)c1C2=O | 2.77
COc1cccc(CCn2c(N)c(-c3ccccc3)c3ccc([N+](=O)[O-])cc3c2=O)c1 | 19.3

system: SK-OV-3 ovarian; assay: inhibition of tumour cell growth, NCI panel, 48 h

SMILES | TGI [µM]
COc1ccc2c(c1)CCc1c-2[nH]c2ccc(OC)cc12 | > 100
C/C(=N\Nc1cc(CN2CCCC2)c(-c2ccc(Cl)cc2)nn1)C(=O)O | > 100
O=C(O)c1ccc(NNc2cc(=O)[nH]c(=O)[nH]2)cc1 | > 100
Cc1cccc(/C=N/NC(=S)NCCc2ccccn2)n1 | 43.5
CC(=O)c1csc2c1C(=O)c1scc(C(C)=O)c1C2=O | 4.64
COc1cccc(CCn2c(N)c(-c3ccccc3)c3ccc([N+](=O)[O-])cc3c2=O)c1 | 23.3
CC1(C)c2ccccc2C(=O)C12CCC(=O)CC2 | > 100

system: SN12C renal; assay: inhibition of tumour cell growth, NCI panel, 48 h

SMILES | TGI [µM]
COc1ccc2c(c1)CCc1c-2[nH]c2ccc(OC)cc12 | > 100
C/C(=N\Nc1cc(CN2CCCC2)c(-c2ccc(Cl)cc2)nn1)C(=O)O | > 100
O=C(O)c1ccc(NNc2cc(=O)[nH]c(=O)[nH]2)cc1 | > 100
Cc1cccc(/C=N/NC(=S)NCCc2ccccn2)n1 | > 100
CC(=O)c1csc2c1C(=O)c1scc(C(C)=O)c1C2=O | 3.28
COc1cccc(CCn2c(N)c(-c3ccccc3)c3ccc([N+](=O)[O-])cc3c2=O)c1 | 1.53
CC1(C)c2ccccc2C(=O)C12CCC(=O)CC2 | > 100

system: SNB-19 CNS; assay: inhibition of tumour cell growth, NCI panel, 48 h

SMILES | TGI [µM]
COc1ccc2c(c1)CCc1c-2[nH]c2ccc(OC)cc12 | > 100
C/C(=N\Nc1cc(CN2CCCC2)c(-c2ccc(Cl)cc2)nn1)C(=O)O | > 100
O=C(O)c1ccc(NNc2cc(=O)[nH]c(=O)[nH]2)cc1 | > 100
Cc1cccc(/C=N/NC(=S)NCCc2ccccn2)n1 | > 100
CC(=O)c1csc2c1C(=O)c1scc(C(C)=O)c1C2=O | 3.32
COc1cccc(CCn2c(N)c(-c3ccccc3)c3ccc([N+](=O)[O-])cc3c2=O)c1 | 41
CC1(C)c2ccccc2C(=O)C12CCC(=O)CC2 | > 100

system: SNB-75 CNS; assay: inhibition of tumour cell growth, NCI panel, 48 h

SMILES | TGI [µM]
COc1ccc2c(c1)CCc1c-2[nH]c2ccc(OC)cc12 | > 100
C/C(=N\Nc1cc(CN2CCCC2)c(-c2ccc(Cl)cc2)nn1)C(=O)O | > 100
O=C(O)c1ccc(NNc2cc(=O)[nH]c(=O)[nH]2)cc1 | > 100
Cc1cccc(/C=N/NC(=S)NCCc2ccccn2)n1 | 75
CC(=O)c1csc2c1C(=O)c1scc(C(C)=O)c1C2=O | 4.54
COc1cccc(CCn2c(N)c(-c3ccccc3)c3ccc([N+](=O)[O-])cc3c2=O)c1 | 11.1
CC1(C)c2ccccc2C(=O)C12CCC(=O)CC2 | > 100

system: SR leukemia; assay: inhibition of tumour cell growth, NCI panel, 48 h

SMILES | TGI [µM]
COc1ccc2c(c1)CCc1c-2[nH]c2ccc(OC)cc12 | > 100
C/C(=N\Nc1cc(CN2CCCC2)c(-c2ccc(Cl)cc2)nn1)C(=O)O | > 100
O=C(O)c1ccc(NNc2cc(=O)[nH]c(=O)[nH]2)cc1 | > 100
Cc1cccc(/C=N/NC(=S)NCCc2ccccn2)n1 | > 100
COc1cccc(CCn2c(N)c(-c3ccccc3)c3ccc([N+](=O)[O-])cc3c2=O)c1 | 31.6
CC1(C)c2ccccc2C(=O)C12CCC(=O)CC2 | > 100

system: SW-620 colon; assay: inhibition of tumour cell growth, NCI panel, 48 h

SMILES | TGI [µM]
COc1ccc2c(c1)CCc1c-2[nH]c2ccc(OC)cc12 | > 100
C/C(=N\Nc1cc(CN2CCCC2)c(-c2ccc(Cl)cc2)nn1)C(=O)O | > 100
O=C(O)c1ccc(NNc2cc(=O)[nH]c(=O)[nH]2)cc1 | > 100
Cc1cccc(/C=N/NC(=S)NCCc2ccccn2)n1 | > 100
CC(=O)c1csc2c1C(=O)c1scc(C(C)=O)c1C2=O | 3.73
COc1cccc(CCn2c(N)c(-c3ccccc3)c3ccc([N+](=O)[O-])cc3c2=O)c1 | > 85.6
CC1(C)c2ccccc2C(=O)C12CCC(=O)CC2 | > 100

system: T-47D breast; assay: inhibition of tumour cell growth, NCI panel, 48 h

SMILES | TGI [µM]
COc1ccc2c(c1)CCc1c-2[nH]c2ccc(OC)cc12 | > 100
C/C(=N\Nc1cc(CN2CCCC2)c(-c2ccc(Cl)cc2)nn1)C(=O)O | > 100
O=C(O)c1ccc(NNc2cc(=O)[nH]c(=O)[nH]2)cc1 | > 100
Cc1cccc(/C=N/NC(=S)NCCc2ccccn2)n1 | > 100
CC(=O)c1csc2c1C(=O)c1scc(C(C)=O)c1C2=O | 1.2
COc1cccc(CCn2c(N)c(-c3ccccc3)c3ccc([N+](=O)[O-])cc3c2=O)c1 | 5.6
CC1(C)c2ccccc2C(=O)C12CCC(=O)CC2 | > 100

system: TK-10 renal; assay: inhibition of tumour cell growth, NCI panel, 48 h

SMILES | TGI [µM]
COc1ccc2c(c1)CCc1c-2[nH]c2ccc(OC)cc12 | > 100
C/C(=N\Nc1cc(CN2CCCC2)c(-c2ccc(Cl)cc2)nn1)C(=O)O | > 100
O=C(O)c1ccc(NNc2cc(=O)[nH]c(=O)[nH]2)cc1 | > 100
Cc1cccc(/C=N/NC(=S)NCCc2ccccn2)n1 | > 100
CC(=O)c1csc2c1C(=O)c1scc(C(C)=O)c1C2=O | 5.82
COc1cccc(CCn2c(N)c(-c3ccccc3)c3ccc([N+](=O)[O-])cc3c2=O)c1 | 5.31
CC1(C)c2ccccc2C(=O)C12CCC(=O)CC2 | > 100

system: U251 CNS; assay: inhibition of tumour cell growth, NCI panel, 48 h

SMILES | TGI [µM]
COc1ccc2c(c1)CCc1c-2[nH]c2ccc(OC)cc12 | > 100
C/C(=N\Nc1cc(CN2CCCC2)c(-c2ccc(Cl)cc2)nn1)C(=O)O | > 100
O=C(O)c1ccc(NNc2cc(=O)[nH]c(=O)[nH]2)cc1 | > 100
Cc1cccc(/C=N/NC(=S)NCCc2ccccn2)n1 | 92.1
CC(=O)c1csc2c1C(=O)c1scc(C(C)=O)c1C2=O | 2.9
COc1cccc(CCn2c(N)c(-c3ccccc3)c3ccc([N+](=O)[O-])cc3c2=O)c1 | 36.5
CC1(C)c2ccccc2C(=O)C12CCC(=O)CC2 | > 100

system: UACC-257 melanoma; assay: inhibition of tumour cell growth, NCI panel, 48 h

SMILES | TGI [µM]
COc1ccc2c(c1)CCc1c-2[nH]c2ccc(OC)cc12 | > 100
C/C(=N\Nc1cc(CN2CCCC2)c(-c2ccc(Cl)cc2)nn1)C(=O)O | > 100
O=C(O)c1ccc(NNc2cc(=O)[nH]c(=O)[nH]2)cc1 | > 100
Cc1cccc(/C=N/NC(=S)NCCc2ccccn2)n1 | > 100
CC(=O)c1csc2c1C(=O)c1scc(C(C)=O)c1C2=O | 2.41
COc1cccc(CCn2c(N)c(-c3ccccc3)c3ccc([N+](=O)[O-])cc3c2=O)c1 | 40.8
CC1(C)c2ccccc2C(=O)C12CCC(=O)CC2 | > 100

system: UACC-62 melanoma; assay: inhibition of tumour cell growth, NCI panel, 48 h

SMILES | TGI [µM]
COc1ccc2c(c1)CCc1c-2[nH]c2ccc(OC)cc12 | > 100
C/C(=N\Nc1cc(CN2CCCC2)c(-c2ccc(Cl)cc2)nn1)C(=O)O | > 100
O=C(O)c1ccc(NNc2cc(=O)[nH]c(=O)[nH]2)cc1 | > 100
Cc1cccc(/C=N/NC(=S)NCCc2ccccn2)n1 | 56.7
CC(=O)c1csc2c1C(=O)c1scc(C(C)=O)c1C2=O | 3.56
COc1cccc(CCn2c(N)c(-c3ccccc3)c3ccc([N+](=O)[O-])cc3c2=O)c1 | 30.7
CC1(C)c2ccccc2C(=O)C12CCC(=O)CC2 | > 100

system: UO-31 renal; assay: inhibition of tumour cell growth, NCI panel, 48 h

SMILES | TGI [µM]
COc1ccc2c(c1)CCc1c-2[nH]c2ccc(OC)cc12 | > 100
C/C(=N\Nc1cc(CN2CCCC2)c(-c2ccc(Cl)cc2)nn1)C(=O)O | > 100
O=C(O)c1ccc(NNc2cc(=O)[nH]c(=O)[nH]2)cc1 | > 100
Cc1cccc(/C=N/NC(=S)NCCc2ccccn2)n1 | 64.2
CC(=O)c1csc2c1C(=O)c1scc(C(C)=O)c1C2=O | 3.61
COc1cccc(CCn2c(N)c(-c3ccccc3)c3ccc([N+](=O)[O-])cc3c2=O)c1 | 27.2
CC1(C)c2ccccc2C(=O)C12CCC(=O)CC2 | > 100
